Results taken from patent publication US9060541B2, “Sterilizer for foods” (Kawakami Co., Ltd., priority 2009, dated 2015).

Assays:
Format in all cases: cell-based
Parameters in all cases: key: D: There is no sterilization effect.; C: There is a sterilization effect in step (1) but no sterilization effect in step (2).; B: There is a sterilization effect up to step (2) but no sterilization effect in step (3).; A: There is a sterilization effect up to step (3)
[1] = tested on: Staphylococcus aureus (209P); assay: Sterilization effect determination test (Fujimoto's modified method of the Kelsey-Sykes method); conditions: Table 2; compositions of calcinated calcium and ethanol, water remainder; 20° C.; steps (1)-(3); listed as Ethanol 30 wt %
[2] = tested on: Enteroaggregative Escherichia coli O111:H21 K-H-6; assay: Comparison test of sterilization effects against various food poisoning microbes
[3] = tested on: Salmonella serotype Krefeld KX-S124; assay: as above
Escherichia coli (NIHJ) = assay: Sterilization effect determination test (Fujimoto's modified method of the Kelsey-Sykes method); conditions: Table 1; compositions of calcinated calcium and ethanol, water remainder; 20° C.; steps (1)-(3); listed as Ethanol 30 wt %
[4] = tested on: Salmonella serotype Agona KX-S143; assay: Comparison test of sterilization effects against various food poisoning microbes
[5] = Table 7, test microbe solution without yeast extract
[6] = Table 8, yeast extract 4 weight % blended in test microbe solution

| SMILES | Sterilization effect [1] | Sterilization effect [2, 5] | Sterilization effect [2, 6] | Sterilization effect [3, 5] | Sterilization effect [3, 6] | Sterilization effect (Escherichia coli (NIHJ)) | Sterilization effect [4, 5] | Sterilization effect [4, 6] |
| --- | --- | --- | --- | --- | --- | --- | --- | --- |
| CCO [EtOH 30%, ethanol] | D | D | D | C | C | C | C | C |
| [Na+].[O-]Cl [S.H 150 ppm, sodium hypochlorite] | – | A | D | A | D | – | A | D |
